Article PMC3715451, “Roles for Ordered and Bulk Solvent in Ligand Recognition and Docking in Two Related Cavities” (PLoS ONE, 2013)
pKd: −log10 of the molar value. Entries after “also recorded” stand apart in the source; their conditions may differ. Read-outs that look alike come from different tables or passages of the source.

Key:
[1] = molecular target: T1, Cytochrome c Peroxidase Gateless cavity (P190G/W191G/Δ192-3) (Saccharomyces cerevisiae, UniProt P00431, A260G/D219G/DEL257-258/P257G/T120I/W258G); experiment: Binding to the CcP Gateless cavity by titration of the UV-Vis Heme Soret band (or ITC); conditions: for Binding by UV-Vis: neutral docking hits, at up to 1 mM concentration
T1 construct: made in house
T1 sequence (P00431 other isoform, or with tags, fused parts or gaps T120I/D219G/DEL257-258/A260G): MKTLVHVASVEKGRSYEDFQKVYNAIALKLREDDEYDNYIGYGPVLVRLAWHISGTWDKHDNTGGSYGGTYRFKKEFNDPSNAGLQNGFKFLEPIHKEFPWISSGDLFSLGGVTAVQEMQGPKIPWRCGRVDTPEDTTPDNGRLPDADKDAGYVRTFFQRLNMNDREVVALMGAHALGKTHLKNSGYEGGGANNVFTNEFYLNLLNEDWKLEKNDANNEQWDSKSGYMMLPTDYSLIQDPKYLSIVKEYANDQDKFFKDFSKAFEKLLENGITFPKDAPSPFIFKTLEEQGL
Experimental: (§1) Our first interest was to investigate the effect of opening the cavity to bulk solvent. Six known ligands of the buried W191G cavity were tested for binding to the Gateless cavity (P190G/W191G/Δ192-3) by UV-Vis titration or by Isothermal Titration Calorimetry (ITC) ( Figure 2 , Table S1 and Figure S1).
(§2) The compounds were tested for binding by measuring perturbation of the Heme Soret band at 10°C in 100 mM citrate buffer at pH 4.5 or 500 mM MES buffer pH 6.0 [27], [73]. To avoid competition with small cations like potassium, the pH of both buffer conditions was adjusted with Bis-Tris-Propane. Stock solutions were made up in DMSO and diluted into assay buffer to derive KD values in titration curves. KD values were obtained by fitting the difference absorbance of the Heme Soret band to a one-site binding hyperbola in GraphPad Prism (GraphPad Software, Inc.).
(§3) Experiments were performed as described. Assays were performed at 10°C in 100 mM citrate buffer at pH 4.5. Ligand stocks were prepared in buffer from overnight dialysis of the protein to prevent buffer mismatch.

[2] = test system: Cytochrome c Peroxidase Gateless cavity (P190G/W191G/Δ192-3); experiment: as above; conditions: for loss in affinity going from W191G to Gateless: ratio of KD Gateless / W191G; for improvement in affinity in Gateless versus closed W191G: ratio of KD W191G / Gateless
Experimental: as §1, §2, §3

CcP Gateless = molecular target: T2, CcP Gateless (Saccharomyces cerevisiae, UniProt P00431, A260G/D219G/DEL257-258/P257G/T120I/W258G); experiment: Low C-value Isothermal Titration Calorimetry against CcP Gateless; type: binding; conditions: ITC, 283K; † approximate value from partial ITC curves
T2 construct: made in house
T2 sequence (P00431 other isoform, or with tags, fused parts or gaps T120I/D219G/DEL257-258/A260G): as above
Experimental: as §3
Table S1. ITC data (ΔG, ΔH and ΔS): binding of compounds 1, 2, 3, 4 and 6 to CcP Gateless at 283K.

[3] = molecular target: Cytochrome c Peroxidase W191G cavity; conditions: closed W191G cavity, cited from earlier work
[4] = six known W191G ligands, UV-Vis titration or ITC, † = approximate KD by endpoint UV-Vis assay or partial ITC curves, limited by solubility, read-out: KD Gateless
[5] = known ligands of W191G, reference not given, read-out: KD W191G
[6] = compounds selected from the SEV docking screen, CcP Gateless cavity, UV-Vis Heme Soret band titration, read-out: KD

SMILES: Cc1cnc(N)s1 [Compound 1, 2-amino-5-methylthiazole]
- pKd [1, 4]: 4.02
- loss in affinity going from W191G to Gateless [2]: 16 fold
- TΔS (CcP Gateless): 0.21 kcal/mol
- ΔG (CcP Gateless): -5.21 kcal/mol
- ΔH (CcP Gateless): -5.00 kcal/mol
- pKd [3, 5]: 5.22

SMILES: Nc1ccnc(N)n1 [Compound 2, 2,4-diaminopyrimidine]
- pKd [1, 4]: 3.41
- loss in affinity going from W191G to Gateless [2]: 8 fold
- TΔS (CcP Gateless): -1.14 kcal/mol
- ΔG (CcP Gateless): -4.42 kcal/mol
- ΔH (CcP Gateless): -5.56 kcal/mol
- pKd [3, 5]: 4.30

SMILES: Nc1cccc(N)n1 [Compound 3, 2,6-diaminopyridine]
- pKd [1, 4]: 4.42
- improvement in affinity in Gateless versus closed W191G [2]: about 1.5 fold
- TΔS (CcP Gateless): -3.31 kcal/mol
- ΔG (CcP Gateless): -5.73 kcal/mol
- ΔH (CcP Gateless): -9.04 kcal/mol
- pKd [3, 5]: 4.22

SMILES: C[n+]1cccc(N)c1 [Compound 4, 3-amino-1-methylpyridinium]
- pKd [1, 4]: ~2.52
- loss in affinity going from W191G to Gateless [2]: 6 fold
- TΔS (CcP Gateless): ~-3.6† kcal/mol
- ΔG (CcP Gateless): ~-3.6† kcal/mol
- ΔH (CcP Gateless): ~-7.2† kcal/mol
- pKd [3, 5]: 3.30

SMILES: Oc1ccccc1 [Compound 5, Phenol]
- change of affinity between the two cavities ([2]; W191G versus Gateless): almost unchanged
- pKd [3, 5]: 2.39

SMILES: Oc1cccc(F)c1O [Compound 6, 3-fluorocatechol]
- pKd ([1]; open Gateless cavity, read-out: affinity in Gateless): 2.51
- pKd [1, 4]: ~2.51
- improvement in affinity in Gateless versus closed W191G [2]: 2 fold
- ΔG (CcP Gateless): ~-3.2† kcal/mol
- ΔH (CcP Gateless): ~-1.0† kcal/mol
- pKd ([3]; no reference given, read-out: affinity in W191G): 2.11

SMILES: O=C(/C=C/c1ccc(F)cc1)c1ccco1 [Compound 7]
- Binding by UV-Vis [1]: none showed measurable affinity; also recorded: No binding

SMILES: O=C(Oc1ccccc1)c1ccc2n[nH]nc2c1 [Compound 8]
- Binding by UV-Vis [1]: none showed measurable affinity; also recorded: No binding

SMILES: O=C(Oc1cccc([N+](=O)[O-])c1)c1ccncc1 [Compound 9]
- Binding by UV-Vis [1]: none showed measurable affinity; also recorded: No binding

SMILES: Nc1c2c(nc3sccc13)CCCC2 [Compound 10, 5,6,7,8-tetrahydrothieno[2,3-b]quinolin-4-amine]
- pKd [1, 6]: 4.19

SMILES: Nc1c(Br)cnc2ccccc12 [Compound 11]
- pKd [1, 6]: 4.72

SMILES: Nc1c([N+](=O)[O-])cnc2ccccc12 [Compound 13]
- pKd [1, 6]: 5.10

SMILES: Nc1cccc2nccn12 [Compound 14, imidazo[1,2-a]pyridin-5-amine]
- pKd [1, 6]: 4.85

SMILES: Cn1ccnc1Sc1ccccc1N [Compound 15]
- pKd [1, 6]: 3.69

SMILES: COc1ccc(Nc2cc(C)nc(N)n2)cc1 [Compound 16]
- pKd [1, 6]: 4.77

SMILES: OCc1cnc2cc[nH]c2c1 [Compound 17, (1H-Pyrrolo[3,2-b]pyridin-6-yl)methanol]
- pKd [1, 6]: 3.01

SMILES: Cc1cc(N)n(-c2ccccc2[N+](=O)[O-])n1 [Compound 18]
- pKd [1, 6]: 3.08

SMILES: C[C@@H](O)CNc1ncnc2ccccc12 [Compound 19]
- pKd [1, 6]: 4.43

SMILES: Nc1ccc2nccn2c1 [Compound 20, Imidazo[1,2-a]pyridin-6-amine]
- pKd [1, 6]: 3.54

SMILES: Cc1cn2cccc(O)c2n1 [Compound 21]
- pKd [1, 6]: 4.80

SMILES: CNc1nc2ccccc2[nH]1 [Compound 22, N-methyl-1H-1,3-benzodiazol-2-amine]
- pKd [1, 6]: 3.54

SMILES: Nc1ncc(C=O)c(N)n1 [Compound 23]
- KD ([1]; compounds selected from the SEV docking screen, CcP Gateless cavity, UV-Vis Heme Soret band titration): Non Binder

SMILES: O=Cc1cnc2cc[nH]c2c1 [Compound 24, 1H-Pyrrolo[3,2-b] pyridine-6-carbaldehyde]
- pKd [1, 6]: < 2.70
